Source: ChEMBL document CHEMBL1201862, “PubChem BioAssay data set” (2004)
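Dose response: 5 concentrations. Exposure: 48 h. Format: 96-well plates. Endpoint: linear interpolation; highest concentration if not reached. GI50 marks 50% less growth.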 Activity calls are given as the source filed them. Cut-off read from the data, not from the text of the source: active = GI50 up to about 1.1 µM and inactive = higher.

How the values were obtained:
Experiment in all cases: growth of human tumour cells (NCI), 48 h
SNB-75 = test system: SNB-75
DMS-273 = test system: DMS-273
LXFL 529 = test system: LXFL 529
COLO 205 = test system: COLO 205
SK-MEL-2 = test system: SK-MEL-2
K562 = test system: K562
DMS-114 = test system: DMS-114
KM-20L2 = test system: KM-20L2
TK-10 = test system: TK-10
HOP-62 = test system: HOP-62
DLD-1 = test system: DLD-1
MOLT-4 = test system: MOLT-4
HCT-15 = test system: HCT-15
SK-MEL-5 = test system: SK-MEL-5
M19-MEL = test system: M19-MEL
OVCAR-8 = test system: OVCAR-8
UACC-257 = test system: UACC-257
OVCAR-3 = test system: OVCAR-3
SF-295 = test system: SF-295
RXF 631 = test system: RXF 631
SNB-78 = test system: SNB-78
A498 = test system: A498
HCC 2998 = test system: HCC 2998
A549 = test system: A549
SK-OV-3 = test system: SK-OV-3
HL-60 = test system: HL-60
UACC-62 = test system: UACC-62
HOP-92 = test system: HOP-92
KM12 = test system: KM12
EKVX = test system: EKVX
NCI-H460 = test system: NCI-H460
RXF 393 = test system: RXF 393
OVCAR-4 = test system: OVCAR-4
786-0 = test system: 786-0
OVCAR-5 = test system: OVCAR-5
HT-29 = test system: HT-29
SNB-19 = test system: SNB-19
ACHN = test system: ACHN
HCT-116 = test system: HCT-116
SK-MEL-28 = test system: SK-MEL-28
IGROV-1 = test system: IGROV-1
LOX IMVI = test system: LOX IMVI
NCI-H226 = test system: NCI-H226
SN12C = test system: SN12C
Malme-3M = test system: Malme-3M
XF498 = test system: XF498
M14 = test system: M14
RPMI-8226 = test system: RPMI-8226
SW-620 = test system: SW-620
CCRF-CEM = test system: CCRF-CEM
SF-539 = test system: SF-539
NCI-H23 = test system: NCI-H23
U-251 = test system: U-251
SF-268 = test system: SF-268
UO-31 = test system: UO-31
MCF7 = test system: MCF7
CAKI-1 = test system: CAKI-1
SR = test system: SR
MDA-N = test system: MDA-N
T47D = test system: T47D
MDA-MB-231 = test system: MDA-MB-231
Hs-578T = test system: Hs-578T
MDA-MB-435 = test system: MDA-MB-435
PC-3 = test system: PC-3
DU-145 = test system: DU-145
BT-549 = test system: BT-549
NCI-H522 = test system: NCI-H522
NCI/ADR-RES = test system: NCI/ADR-RES
HOP-18 = test system: HOP-18

Measured: GI50

COc1ccccc1C12OC(=O)C1(C)Oc1ccccc1C2=O (stereo not given)
> 100 µM: HCT-15
inactive: SNB-75 34.8 µM | DMS-273 22.5 µM | LXFL 529 > 100 µM | COLO 205 > 100 µM | SK-MEL-2 > 100 µM | K562 > 100 µM | DMS-114 > 100 µM | KM-20L2 > 100 µM | TK-10 > 100 µM | HOP-62 > 100 µM | DLD-1 > 100 µM | MOLT-4 > 100 µM | SK-MEL-5 > 100 µM | M19-MEL > 100 µM | OVCAR-8 > 100 µM | UACC-257 > 100 µM | OVCAR-3 > 100 µM | SF-295 > 100 µM | RXF 631 30.8 µM | SNB-78 > 100 µM | A498 > 100 µM | HCC 2998 > 100 µM | A549 > 100 µM | SK-OV-3 > 100 µM | HL-60 > 100 µM | UACC-62 > 100 µM | HOP-92 65 µM | KM12 > 100 µM | EKVX > 100 µM | NCI-H460 > 100 µM | RXF 393 > 100 µM | OVCAR-4 > 100 µM | 786-0 > 100 µM | OVCAR-5 > 100 µM | HT-29 > 100 µM | SNB-19 > 100 µM | ACHN > 100 µM | HCT-116 > 100 µM | SK-MEL-28 > 100 µM | IGROV-1 > 100 µM | LOX IMVI 26.8 µM | NCI-H226 > 100 µM | SN12C > 100 µM | Malme-3M > 100 µM | XF498 > 100 µM | M14 > 100 µM | RPMI-8226 > 100 µM | SW-620 > 100 µM | CCRF-CEM > 100 µM | SF-539 > 100 µM | NCI-H23 > 100 µM | U-251 > 100 µM | SF-268 > 100 µM | UO-31 > 100 µM

C=C(c1nc2ccc(Cl)cc2[nH]c1=O)C(O)c1ccc(C(O)C(=O)c2nc3ccc(Cl)cc3[nH]c2=O)cc1 (stereo not given)
inactive: SNB-75 > 100 µM | MCF7 > 100 µM | CAKI-1 > 100 µM | DMS-273 > 100 µM | SR 83.6 µM | LXFL 529 81.1 µM | COLO 205 > 100 µM | SK-MEL-2 > 100 µM | K562 49 µM | DMS-114 35.4 µM | KM-20L2 62.4 µM | TK-10 > 100 µM | HOP-62 > 100 µM | MDA-N > 100 µM | DLD-1 > 100 µM | MOLT-4 33.2 µM | SK-MEL-5 > 95.1 µM | M19-MEL > 100 µM | T47D > 100 µM | OVCAR-8 > 100 µM | UACC-257 > 100 µM | OVCAR-3 > 100 µM | SF-295 > 100 µM | RXF 631 > 100 µM | MDA-MB-231 > 100 µM | SNB-78 > 100 µM | A498 > 100 µM | HCC 2998 > 100 µM | A549 > 100 µM | Hs-578T > 100 µM | SK-OV-3 > 100 µM | HL-60 5.04 µM | UACC-62 > 79.6 µM | HOP-92 > 100 µM | MDA-MB-435 > 100 µM | KM12 60.1 µM | EKVX > 100 µM | PC-3 87.9 µM | NCI-H460 > 100 µM | RXF 393 > 100 µM | OVCAR-4 > 100 µM | 786-0 > 100 µM | OVCAR-5 > 100 µM | DU-145 > 100 µM | HT-29 > 100 µM | SNB-19 > 100 µM | ACHN 61.7 µM | BT-549 > 100 µM | HCT-116 > 100 µM | SK-MEL-28 > 100 µM | IGROV-1 > 68.2 µM | LOX IMVI > 83.6 µM | NCI-H226 > 100 µM | NCI-H522 47.1 µM | SN12C > 100 µM | Malme-3M > 100 µM | XF498 > 100 µM | M14 > 100 µM | RPMI-8226 9.06 µM | NCI/ADR-RES > 100 µM | SW-620 > 100 µM | CCRF-CEM 4.28 µM | SF-539 > 100 µM | NCI-H23 > 100 µM | U-251 > 100 µM | SF-268 > 100 µM | UO-31 > 91 µM
74.5 µM: HCT-15

CCOC(=O)/C(Br)=C1\OC(=O)c2ccccc2-c2ccccc21
48.4 µM: HCT-15
inactive: SNB-75 26.4 µM | CAKI-1 54.3 µM | DMS-273 41.4 µM | SR 22 µM | LXFL 529 29.4 µM | COLO 205 20.8 µM | SK-MEL-2 64 µM | K562 21.1 µM | DMS-114 23.1 µM | TK-10 60.7 µM | HOP-62 24.2 µM | DLD-1 91.6 µM | MOLT-4 25.9 µM | SK-MEL-5 37.1 µM | M19-MEL 51.1 µM | OVCAR-8 49.8 µM | UACC-257 58.5 µM | OVCAR-3 37.4 µM | SF-295 36.5 µM | RXF 631 33.3 µM | SNB-78 29.6 µM | HCC 2998 49.2 µM | HOP-18 91.8 µM | A549 40.3 µM | SK-OV-3 34 µM | HL-60 13.3 µM | UACC-62 44.4 µM | HOP-92 24.3 µM | KM12 34.7 µM | EKVX > 100 µM | 786-0 52.8 µM | OVCAR-5 > 100 µM | HT-29 33.2 µM | ACHN 52.6 µM | HCT-116 43.3 µM | SK-MEL-28 61.4 µM | IGROV-1 63.5 µM | LOX IMVI 36.8 µM | NCI-H226 23.4 µM | NCI-H522 23 µM | SN12C 37.4 µM | Malme-3M 47.2 µM | XF498 65.8 µM | M14 40.4 µM | RPMI-8226 27.9 µM | SW-620 42.5 µM | CCRF-CEM 23.3 µM | SF-539 25.1 µM | NCI-H23 57.8 µM | U-251 38.5 µM | SF-268 43.8 µM | UO-31 38.7 µM

CCOC(=O)N1CCC(=O)C(CNC23CC4CC(CC(C4)C2)C3)C1 (stereo not given)
inactive: CAKI-1 > 10 µM | DMS-273 25.2 µM | SR 21.7 µM | LXFL 529 18.3 µM | COLO 205 37.4 µM | SK-MEL-2 > 100 µM | K562 13.1 µM | KM-20L2 > 100 µM | TK-10 > 100 µM | HOP-62 > 100 µM | DLD-1 21.1 µM | MOLT-4 13.9 µM | SK-MEL-5 80.2 µM | M19-MEL 20.4 µM | OVCAR-8 21.2 µM | UACC-257 23.9 µM | SF-295 > 100 µM | RXF 631 > 100 µM | SNB-78 > 10 µM | A498 > 100 µM | A549 > 100 µM | SK-OV-3 > 100 µM | HL-60 22.2 µM | UACC-62 > 100 µM | HOP-92 20.7 µM | KM12 > 100 µM | EKVX > 100 µM | NCI-H460 > 100 µM | RXF 393 17.2 µM | OVCAR-4 15.1 µM | 786-0 15.6 µM | OVCAR-5 > 100 µM | HT-29 22.4 µM | SNB-19 > 100 µM | ACHN 17.5 µM | SK-MEL-28 18.2 µM | LOX IMVI 19 µM | NCI-H226 > 100 µM | NCI-H522 16.7 µM | SN12C > 100 µM | Malme-3M 17.7 µM | XF498 18.1 µM | SW-620 19.8 µM | CCRF-CEM 16.9 µM | SF-539 > 100 µM | NCI-H23 61.4 µM | U-251 > 100 µM | SF-268 > 100 µM | UO-31 51.5 µM
